Results taken from PubChem BioAssay AID1996.
≈ marks a conversion by molar mass, not a printed value.

Conditions: buffer; pH 7.4; 200.0 µM

SMILES	solubility kinetic [µg/mL]
CC(C)(C)c1cc(NS(=O)(=O)c2ccc(Br)s2)no1	30.1 (≈ 82.4 µM)
N#CC1=C(N)N2C(=C(C#N)C13CCCC3)Nc1ccccc12	36.9 (≈ 128 µM)
O=C(COC(=O)C1CCC1)NC(=O)c1ccccc1	> 39.2
O=C(c1cccs1)N1CCN=C1SCc1cccc(F)c1	< 0.3
CSc1nc(=S)n(-c2ccc([N+](=O)[O-])cc2)c(C)c1C(C)=O	48.2 (≈ 144 µM)
COc1ccc(CNC(=O)Nc2cccc(Cl)c2)cc1	1.1 (≈ 3.78 µM)
COC(=O)c1ccc(CN2C(=O)C3CCCCC3C2=O)o1 (configuration not stated)	> 43.7
CC1=[N+]([O-])C(C)(C)N(O)C1(C)C	> 25.8
CN(C(=O)c1ccc2nccnc2c1)C1CCCCC1	> 40.4
CCN1CCN(S(=O)(=O)c2ccc(Cl)c(C(=O)NCc3nc4ccccc4[nH]3)c2)CC1	18.8 (≈ 40.7 µM)
CN1C(=O)c2ccccc2N(C)C1c1ccc(F)cc1 (configuration not stated)	30.7 (≈ 114 µM)
CC(=O)Nc1ccc(NC(=O)CSc2nc3ccccc3c(=O)n2CCCN2CCOCC2)cc1	70.9 (≈ 143 µM)
CSCc1c(C(=O)Nc2ccc3c(c2)OCO3)oc2ccccc12	6.4 (≈ 18.7 µM)
CNC(=S)N1CCN(c2nc(-c3ccc(F)cc3)cs2)CC1	2.5 (≈ 7.43 µM)
C/C(=N\O)c1oc2ccc3c(C)cc(=O)oc3c2c1C	< 0.6
CCC(CC)C(=O)c1c[nH]c(C(=O)NCc2ccncc2)c1	44.2 (≈ 148 µM)
CCC(=O)c1c(NC(CC)CO)cc(C)oc1=O (configuration not stated)	> 38
COC(=O)CN1C(=O)N/C(=C/c2ccc(OC)cc2)C1=O	17.4 (≈ 59.9 µM)
Cc1nc2ccccn2c1C(=O)NN=C1CCCC1	> 38.4
CCOC(=O)CNC(=O)CSc1nc(-c2ccccc2)ns1	> 50.6
CN(Cc1ccccc1)C(=O)COC(=O)c1ccc(Cl)cc1N	2.4 (≈ 7.21 µM)
O=C(COC(=O)CC1CCCC1)Nc1ccc(Br)cc1F	19.2 (≈ 53.6 µM)
CN1C(=O)C(c2ccccc2)C(=O)N(C)C1=O	30.5 (≈ 131 µM)
CCCOc1ccc(C(=O)Nc2cccnc2)cc1	36 (≈ 140 µM)

SMILES	solubility kinetic [µg/mL]
COc1cccc(C2CCCN2Cc2nc(-c3cnccn3)no2)c1 (configuration not stated)	44.9 (≈ 133 µM)
CC(C)N(C(=O)COC(=O)CCC(=O)c1cccs1)c1ccccc1	> 53.9
O=C(Cc1ccccc1)Nc1ccc2oc(=O)ccc2c1	39.9 (≈ 143 µM)
COc1cc(CC(=O)OCC(=O)Nc2ccc(N(C)C)cc2)cc(OC)c1OC	> 60.4
O=S(=O)(Nc1ccncc1)c1ccc(Cl)c(Cl)c1	3.7 (≈ 12.2 µM)
O=C(Nc1ccc(O)cc1)c1ccc(NC(=O)C2CCCO2)cc1 (configuration not stated)	> 49
Cc1csc(NC(=O)CCCC(=O)O)c1-c1nc2ccccc2s1	> 54.1
O=Cc1cnc(N2CCN(Cc3ccccc3)CC2)s1	> 43.1
O=c1cc(Cl)[nH]c(=O)n1Cc1ccc(F)cc1	34.9 (≈ 137 µM)
Cc1cccc(/C=C(\C#N)C(=O)Nc2ccccn2)c1	33.3 (≈ 126 µM)
COc1ccc(-c2csc(Nc3ccccn3)n2)cc1	< 0.2
CCC(NC(=S)NCc1ccc(F)cc1)c1ccccc1 (configuration not stated)	3.4 (≈ 11.2 µM)
Cc1noc(N)c1C1(O)C(=O)Nc2c(Cl)cc(Cl)cc21 (configuration not stated)	> 47.1
CSc1nc([O-])cc(=O)n1-c1ccc(F)cc1.[K+]	> 43.6
Cc1cn(C2OC(CC(=O)Oc3ccccc3)C(O)C2O)c(=O)[nH]c1=O (configuration not stated)	48.5 (≈ 134 µM)
O=C(O)c1cn(CCOc2ccccc2Cl)c2ccccc12	> 47.4
Cc1cccc(CNS(=O)(=O)c2csc(C(N)=O)c2)c1	> 46.6
Cc1ccccc1NC(=S)N(Cc1ccccc1)Cc1cccnc1	43.9 (≈ 126 µM)
Cc1ccc(C(=O)N/C(=C\c2cn(C)c3ccccc23)C(=O)OCCN(C)C)cc1	58.9 (≈ 145 µM)
CC1(C(=O)O)CCC(C(=O)N2CCCCC2)C1(C)C (configuration not stated)	> 40.1
O=C(NC1CCN(C(=S)NCCc2ccccc2)CC1)C1CC1	10.7 (≈ 32.3 µM)
Cc1cc(C)n(CC(=O)Nc2ccc3c(c2)OCO3)c(=O)c1C#N	8.4 (≈ 25.8 µM)
Cl.c1csc(CN2CCNCC2)c1	> 38.3
